The target of one data set is ABCC1 (Homo sapiens, UniProt P33527). As to conditions: cited from earlier work. Also: key: the inhibitor is active (+); it is inactive (−); the effect is unknown (?).
The target of data set [1] is T1, ABCB1 (Homo sapiens, UniProt P08183). As to conditions: cited from earlier work.
The next data set has as its target T2, ABCG2 (Homo sapiens, UniProt Q9UNQ0).
T2 sequence (Q9UNQ0 1-655): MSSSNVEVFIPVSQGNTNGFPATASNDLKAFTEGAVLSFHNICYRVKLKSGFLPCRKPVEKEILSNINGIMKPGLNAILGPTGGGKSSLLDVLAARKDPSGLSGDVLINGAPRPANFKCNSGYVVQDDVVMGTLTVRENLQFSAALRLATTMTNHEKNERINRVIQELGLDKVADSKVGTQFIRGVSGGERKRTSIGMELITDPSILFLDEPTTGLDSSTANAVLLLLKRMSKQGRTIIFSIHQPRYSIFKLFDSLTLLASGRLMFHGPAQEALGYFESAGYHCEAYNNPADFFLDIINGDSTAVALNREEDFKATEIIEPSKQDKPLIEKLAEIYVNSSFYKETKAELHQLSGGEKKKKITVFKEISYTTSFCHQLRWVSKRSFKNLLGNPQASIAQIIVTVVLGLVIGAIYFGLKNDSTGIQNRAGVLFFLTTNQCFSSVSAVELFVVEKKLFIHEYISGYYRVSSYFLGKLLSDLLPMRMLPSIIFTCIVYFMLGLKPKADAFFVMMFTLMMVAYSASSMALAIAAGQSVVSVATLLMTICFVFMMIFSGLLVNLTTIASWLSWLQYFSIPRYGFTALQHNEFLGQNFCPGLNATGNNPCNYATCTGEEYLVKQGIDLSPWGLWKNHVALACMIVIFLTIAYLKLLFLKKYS
As to conditions: cited from earlier work.

The next data set concerns the target T3, P-gp/ABCB1 (Homo sapiens, UniProt P08183).
T3 construct: expressed in transfected cells; host or cells: NIH3T3 transfected with pHaMDR1/A
The experiment in a line: Flow cytometry: mitoxantrone efflux induced by ABCB1 in transfected NIH3T3 cells. In kind it is cell-based. The text has this:
(§1) Cell cultures. The human […] HEK-293 transfected with the vector pcDNA3.1 including or not the gene encoding ABCG2 (Robey, R. W., Honjo, Y., Morisaki, K., Nadjem, T. A., Runge, S., Risbood, M., Poruchynsky, M. S., Bates, S. E. 2003, Br. J. Cancer 89(10) 1971-1978) was used to test the efficacy of the products on ABCG2. The newborn hamster kidney cell line BHK21 either natural (negative control) or transfected with the vector pNUT-MRP/His expressing the gene encoding ABCC1 (Chang, Xiu-Bao, Hou, Yue-Xian, Riordan, John R. 1997, J. Biol. Chem. 272(49) 30962-30968) was used to test the efficacy of the products on ABCC1. The cell line NIH3T3 natural or transfected with the vector pHaMDR1/A expressing ABCB1 (Cardarelli, Carol O., Aksentijevich, Ivan, Pastan, Ira, Gottesman, Michael M. 1995 Cancer Res. 55 1086-1091) was used to test the efficacy of the compounds on ABCB1. The various cell types are cultured according to the protocols described previously (Robey, R. W., Honjo, Y., Morisaki, K., Nadjem, T. A., Runge, S., Risbood, M., Poruchynsky, M. S., Bates, S. E. 2003, Br. J. Cancer 89(10) 1971-1978 for the line HEK293, Chang, Xiu-Bao, Hou, Yue-Xian, Riordan, John R. 1997, J. Biol. Chem. 272(49) 30962-30968 for the line BHK21 and Cardarelli, Carol O., Aksentijevich, Ivan, Pastan, Ira, Gottesman, Michael M. 1995 Cancer Res. 55 1086-1091 for the line NIH3T3).
(§2) FIG. 1 schematically illustrates an efflux of substrate induced by a typical ABC transporter. The substrates S, such as mitoxantrone effluxed with ABCG2 and ABCB1 or daunorubicin effluxed with ABCC1, are accumulated in the cells and expelled by the transporter T, leading to a decrease in intracellular fluorescence. In the case of accumulation of the product, typically by inhibition of the efflux protein, the intracellular fluorescence increases.
(§3) Flow cytometry. Transfected or untransfected HEK-293 and BHK-21 cells are in a first stage placed in contact with substrate (5 μM mitoxantrone or 1 μM daunorubicin depending on the transporter). The substrate is accumulated for 30 minutes at 37° C. in the presence or absence of varied concentrations of the test molecules, at 0.5% of DMSO final. After washing with PBS, the cells are incubated in medium containing the same concentrations of test molecules as previously, for 1 hour at 37° C. The drug intracellular fluorescence is measured with a FACscan flow cytometer (Becton Dickinson, Mountain View, Calif.). The fluorescent substrates are excited at 488 nm; the fluorescence emission of mitoxantrone (MTX) is measured at 650 nm and that of daunorubicin is measured at 530 nm. The efficacy of the test molecules is estimated by means of equation 1:
(§4) % efficacy=100×(FA−FBG)/(FC−FBG),
(§5) in which: • FA corresponds to the intracellular level of substrate measured in the cells overexpressing the transporter T (corresponding to the lowest level of fluorescence in the absence of inhibitor), • FC corresponds to the fluorescence in the control cells not expressing the test transporter. This is thus the maximum accumulation of substrate in the cells), • FBG corresponds to the fluorescence measured in the absence of substrate and in the presence of inhibitor.
(§6) The compounds presented in TABLES 2 to 5 were tested by flow cytometry on mammalian cell lines selectively expressing the efflux proteins ABCG2, ABCB1 or ABCC1, as described previously.
(§7) The mitoxantrone efflux induced by ABCG2 or ABCB1 and the daunorubicin efflux induced by ABCC1 are estimated by flow cytometry, as described previously, at 10 μM of each test compound, and then at 2 μM for the compounds showing at least 80% efficacy at 10 μM. The concentration inducing 50% inhibition (IC50) was estimated for the most efficient aza derivatives. The values are obtained by three independent experiments and were adjusted using the SigmaPlot software.

The target in the next data set is T4, BCRP/ABCG2 (Homo sapiens, UniProt Q9UNQ0).
T4 construct: expressed in transfected cells; host or cells: HEK-293 transfected with pcDNA3.1-ABCG2
T4 sequence (Q9UNQ0 1-655): T2 sequence (Q9UNQ0 1-655)
The experiment in a line: Flow cytometry: mitoxantrone efflux induced by ABCG2 in transfected HEK-293 cells. The format is cell-based.
From the text: as §1, §2, §3, §4, §5, §6, §7

Data set [2] has as its target T1, ABCB1. The experiment in a line: Type of inhibition: daunorubicin efflux at varied substrate and inhibitor concentrations (FIG. 11). The format is cell-based. Also on record: expressed in transfected cells; host or cells: NIH3T3 transfected with pHaMDR1/A. As to conditions: daunorubicin efflux as a function of its concentration.
For active or inactive on ABCB1 in this document: key: the inhibitor is active (+); it is inactive (−); the effect is unknown (?).

T3 sequence (P08183 whole entry): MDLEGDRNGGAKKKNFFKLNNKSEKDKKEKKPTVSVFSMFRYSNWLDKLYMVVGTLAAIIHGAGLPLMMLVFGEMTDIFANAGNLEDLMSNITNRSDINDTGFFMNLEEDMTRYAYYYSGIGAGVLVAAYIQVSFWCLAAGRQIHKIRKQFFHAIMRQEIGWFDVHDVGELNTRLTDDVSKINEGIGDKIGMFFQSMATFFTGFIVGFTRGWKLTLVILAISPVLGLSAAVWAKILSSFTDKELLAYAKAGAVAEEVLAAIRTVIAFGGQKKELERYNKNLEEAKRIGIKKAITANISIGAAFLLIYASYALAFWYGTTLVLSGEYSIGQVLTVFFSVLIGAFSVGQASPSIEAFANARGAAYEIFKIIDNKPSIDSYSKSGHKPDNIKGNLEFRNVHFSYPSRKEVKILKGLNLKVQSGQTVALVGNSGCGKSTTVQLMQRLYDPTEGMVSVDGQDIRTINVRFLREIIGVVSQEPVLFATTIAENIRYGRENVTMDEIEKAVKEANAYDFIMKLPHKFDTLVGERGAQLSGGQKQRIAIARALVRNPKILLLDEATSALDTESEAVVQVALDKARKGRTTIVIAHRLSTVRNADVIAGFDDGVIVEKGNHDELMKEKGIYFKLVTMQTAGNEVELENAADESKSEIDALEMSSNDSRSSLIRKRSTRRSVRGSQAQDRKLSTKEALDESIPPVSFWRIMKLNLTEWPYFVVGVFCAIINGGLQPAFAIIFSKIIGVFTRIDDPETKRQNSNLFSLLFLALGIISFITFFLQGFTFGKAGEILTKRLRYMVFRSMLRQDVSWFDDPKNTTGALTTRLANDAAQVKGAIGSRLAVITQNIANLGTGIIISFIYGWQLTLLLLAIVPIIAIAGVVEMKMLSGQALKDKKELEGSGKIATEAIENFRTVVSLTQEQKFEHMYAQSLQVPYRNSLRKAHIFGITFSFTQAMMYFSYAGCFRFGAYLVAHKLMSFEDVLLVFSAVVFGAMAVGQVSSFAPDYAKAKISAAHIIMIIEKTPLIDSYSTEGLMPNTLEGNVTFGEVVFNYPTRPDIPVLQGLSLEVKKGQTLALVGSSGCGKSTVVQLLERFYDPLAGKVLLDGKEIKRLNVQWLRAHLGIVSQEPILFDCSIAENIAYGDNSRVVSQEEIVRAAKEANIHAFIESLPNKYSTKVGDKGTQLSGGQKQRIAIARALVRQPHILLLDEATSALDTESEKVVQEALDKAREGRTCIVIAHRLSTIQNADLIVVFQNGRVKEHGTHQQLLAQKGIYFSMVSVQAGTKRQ
T1 sequence (P08183 whole entry): as above
ABCC1, sequence (P33527 whole entry): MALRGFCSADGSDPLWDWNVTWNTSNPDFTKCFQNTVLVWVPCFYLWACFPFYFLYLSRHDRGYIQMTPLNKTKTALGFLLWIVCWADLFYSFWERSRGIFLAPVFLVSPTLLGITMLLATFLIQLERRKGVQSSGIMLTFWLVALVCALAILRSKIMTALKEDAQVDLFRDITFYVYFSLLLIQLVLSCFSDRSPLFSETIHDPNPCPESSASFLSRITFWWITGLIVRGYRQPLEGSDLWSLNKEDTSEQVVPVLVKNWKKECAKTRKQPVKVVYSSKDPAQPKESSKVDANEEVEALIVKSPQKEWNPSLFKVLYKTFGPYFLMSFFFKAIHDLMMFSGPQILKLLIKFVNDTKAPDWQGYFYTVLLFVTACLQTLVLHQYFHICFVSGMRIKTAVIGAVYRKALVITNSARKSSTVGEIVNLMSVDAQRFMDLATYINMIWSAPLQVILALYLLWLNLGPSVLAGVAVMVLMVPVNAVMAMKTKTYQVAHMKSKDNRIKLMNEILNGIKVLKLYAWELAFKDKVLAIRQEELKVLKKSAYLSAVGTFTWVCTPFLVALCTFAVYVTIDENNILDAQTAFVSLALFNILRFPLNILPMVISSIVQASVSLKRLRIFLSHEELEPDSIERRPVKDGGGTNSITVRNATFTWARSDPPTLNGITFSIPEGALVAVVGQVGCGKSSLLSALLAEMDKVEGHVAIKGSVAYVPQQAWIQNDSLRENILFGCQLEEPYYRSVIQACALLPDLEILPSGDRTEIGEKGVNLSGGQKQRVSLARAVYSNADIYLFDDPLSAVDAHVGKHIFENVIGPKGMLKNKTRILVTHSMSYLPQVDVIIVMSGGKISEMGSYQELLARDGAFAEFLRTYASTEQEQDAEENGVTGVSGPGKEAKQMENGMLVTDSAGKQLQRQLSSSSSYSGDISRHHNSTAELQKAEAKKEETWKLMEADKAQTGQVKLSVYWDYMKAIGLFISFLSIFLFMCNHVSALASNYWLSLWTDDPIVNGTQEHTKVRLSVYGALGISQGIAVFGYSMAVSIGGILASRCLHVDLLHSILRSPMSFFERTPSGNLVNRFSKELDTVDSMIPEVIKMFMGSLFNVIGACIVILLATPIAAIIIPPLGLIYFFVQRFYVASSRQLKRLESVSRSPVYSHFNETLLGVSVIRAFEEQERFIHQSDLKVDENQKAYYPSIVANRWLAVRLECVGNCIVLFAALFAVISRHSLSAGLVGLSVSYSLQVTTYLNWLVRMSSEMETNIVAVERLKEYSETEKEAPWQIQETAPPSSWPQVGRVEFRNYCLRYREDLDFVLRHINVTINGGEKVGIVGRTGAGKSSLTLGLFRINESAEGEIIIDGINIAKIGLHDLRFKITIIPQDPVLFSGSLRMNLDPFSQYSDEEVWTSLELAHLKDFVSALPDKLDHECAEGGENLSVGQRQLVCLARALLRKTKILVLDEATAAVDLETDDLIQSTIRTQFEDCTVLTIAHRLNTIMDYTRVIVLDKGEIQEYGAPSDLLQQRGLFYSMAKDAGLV

As for `COc1cc2c(cc1OC)CN(CCc1ccc(NC(=O)c3cccc4c(=O)c5cccc(OC)c5[nH]c34)cc1)CC2` [GF 120918, elacridar], the “active or inactive on ABCC1” value at ABCC1 was “−”. The “active or inactive on ABCB1” value on ABCB1 [1] is on record as “+”. Further, at ABCG2, the “active or inactive on ABCG2” value is on record as “+”.

As for `CC(C)(C)OC(=O)NN(C(=O)N[C@@H](CCCCNC(=O)OCc1ccccc1)C(=O)OC(C)(C)C)c1ccc(C(=O)OCc2ccccc2)cc1` [IA.3, tert-Butyl ester of (2S)-6-(benzyloxycarbonylamino)-2-[1-(4′-(benzyloxycarbonyl)phenyl)-2-(tert-butoxycarbonyl)hydrazino-carbonylamino]hexanoic acid], the melting point was 106 °C. This compound displayed an IC50 at P-gp/ABCB1 of 330 nM. Also, the inhibition at 2 μM on P-gp/ABCB1 (human, NIH3T3 cells transfected with ABCB1 (vector pHaMDR1/A), probe mitoxantrone (5 μM), 2 μM compound, read-out: P-gp/ABCB1 % efficacy 2 μM) stood at 90 ± 7%. Moreover, on P-gp/ABCB1 (human, NIH3T3 cells transfected with ABCB1 (vector pHaMDR1/A), probe mitoxantrone (5 μM), 10 μM compound, read-out: P-gp/ABCB1 % efficacy 10 μM), the inhibition at 10 μM was determined as 98 ± 14%. Moreover, the “selectivity toward one or other of the proteins BCRP or P-gp” value on BCRP/ABCG2 (BCRP versus P-gp) was “selective”. Besides, at BCRP/ABCG2 (human, HEK-293 cells transfected with ABCG2 (vector pcDNA3.1), probe mitoxantrone (5 μM), 10 μM compound, mitoxantrone efflux, HEK-293 cells, three independent experiments, read-out: BCRP/ABCG2 % efficacy 10 μM), the inhibition at 10 μM stood at 38%. In addition, the “type of inhibition of ABCB1” value at ABCB1 [2] is “inhibition of noncompetitive type”.

As to `O[C@@H](COc1cccc2ncccc12)CN1CCN([C@@H]2c3ccccc3[C@@H]3[C@H](c4ccccc42)C3(F)F)CC1` [Ly335979, zosuquidar], on ABCC1, the “active or inactive on ABCC1” value is reported as “−”. Further, the “active or inactive on ABCG2” value on ABCG2 was “−”.

Regarding `CCOC/C=C/c1ccc(-c2nc(-c3ccc(NC(C)C)cc3)c(-c3ccc(NC(C)C)cc3)[nH]2)cc1` [ONT-093, ontogen], the “active or inactive on ABCC1” value at ABCC1 is reported as “−”. Besides, the “active or inactive on ABCB1” value at ABCB1 [1] is given as “+”.

Take `C/C=C/C[C@@H](C)C(=O)[C@H]1C(=O)N[C@@H](C(C)C)C(=O)N(C)CC(=O)N(C)[C@@H](CC(C)C)C(=O)N[C@@H](C(C)C)C(=O)N(C)[C@@H](CC(C)C)C(=O)N[C@@H](C)C(=O)N[C@H](C)C(=O)N(C)[C@@H](CC(C)C)C(=O)N(C)[C@@H](CC(C)C)C(=O)N(C)[C@@H](C(C)C)C(=O)N1C` [PSC833, valspodar]: the “active or inactive on ABCB1” value on ABCB1 [1] is given as “+”. In addition, at ABCG2, the “active or inactive on ABCG2” value is “−”.

For the compound `COC(=O)c1cnc2n1CCc1ccccc1C2=C1CCN(CCc2ccc(OCc3ccc4ccccc4n3)cc2)CC1` [R101933, laniquidar], the “active or inactive on ABCB1” value at ABCB1 [1] is given as “+”.

Consider `COc1cc(C(=O)C(=O)N2CCCC[C@H]2C(=O)OC(CCCc2cccnc2)CCCc2cccnc2)cc(OC)c1OC` [VX-710, biricodar], for which the “active or inactive on ABCC1” value on ABCC1 is “+”. Besides, the “active or inactive on ABCB1” value at ABCB1 [1] is reported as “+”. The “active or inactive on ABCG2” value on ABCG2 is “+”.

Consider `COc1cc2c(cc1OC)CN(CCc1ccc(NC(=O)c3cc(OC)c(OC)cc3NC(=O)c3cnc4ccccc4c3)cc1)CC2` [XR9576, tariquidar], for which, on ABCB1 [1], the “active or inactive on ABCB1” value is on record as “+”. The “active or inactive on ABCG2” value at ABCG2 was “+”.
